Test results from patent US11142524B2, “Substituted-3H-imidazo[4,5-c]pyridine and 1H-pyrrolo[2,3-c]pyridine series of novel Ectonucleotide Pyrophosphatase/Phosphodiesterase-1 (ENPP1) and stimulator for interferon genes (STING) modulators as cancer immunotherapeutics” (Stingray Therapeutics, Inc., priority 2018, dated 2021).

Key:
[1] = biological target: T1, Recombinant Human ENPP-1 Protein (purified in-house) (Homo sapiens (Human), UniProt P22413); test: ENPP1 Assay (ATP), Example 2; type: biochemical; conditions: Table 5, ATP substrate; read-out: ENPP1 (IC50 μM) ATP
Procedure: Assay Buffer: 1 mM CaCl2, 0.2 mM ZnCl2, 50 mM Tris, pH 9.0. Substrate: 100 μM Adenosine 5′-triphosphate disodium salt hydrate (Promega: V703A)—Assay Conc.: 10 μM. Enzyme: 1 ng/μL Recombinant Human ENPP-1 Protein (purified in-house)—Assay Conc.: 5 ng/well of DMSO in 96-well white assay plates. Cell Titer Glo (Promega, cat #G7572).
A ten point serial dilution of drugs was prepared in 10× in assay buffer with the final assay concentrations starting at 10 μM, 3 μM, 1 μM, 0.3 μM . . . 0 μM. A dilution of DMSO was included as a control. The assay plate was set up as follows with each well in duplicate: 75 μL assay buffer+10 μL ENPP1 inhibitor or DMSO Dilutions+10 μL Substrate+5 μL Enzyme (5 ng). Both the enzyme and substrate were added to opposite sides of the well to ensure that there was no interaction until all wells had both components. The plate was then centrifuged gently for 10 seconds, followed by incubation at RT for 20 minutes. To detect levels of ATP, Cell Titer Glo was added 1:1 to each well and incubated for 10 minutes. The reaction was quantified by measuring luminescence using the Envision Plate Reader.

[2] = system: IRF-3 reporter in THP1 WT and STING knockout cells; test: THP1 IRF-3 Reporter Assay; type: cell-based; conditions: 10 μM, primed with 2′3′cGAMP, 24 hours (FIG. 10) or 72 hours (FIG. 11)
Procedure: FIGS. 10 and 11 depict results of a THP1 IRF-3 Reporter Assay. THP1 WT and STING knockout cells were primed with 2′3′cGAMP and treated with 10 μM ENPP1 inhibitors for 24 hours (FIG. 10) or 72 hours (FIG. 11). Media collected to determine induction of IRF-3 reporter using luminescence reagent QuantiLuc.

[3] = biological target: T1, Recombinant Human ENPP-1 Protein (purified in-house); test: ENPP1 Assay (TMP), Example 2; type: biochemical; conditions: Table 5, TMP substrate; read-out: ENPP1 (IC50 μM) TMP
Procedure: Enzyme: 1 ng/μL Recombinant Human ENPP-1 Protein (purified in-house)—Assay Conc.: 5 ng/well of DMSO in 96-well clear assay plates.
A ten point serial dilution of drugs was prepared in 10× in assay buffer with the final assay concentrations starting at 10 μM, 3 μM, 1 μM, 0.3 μM . . . 0 μM. A dilution of DMSO was included as a control. The assay plate was set up as follows with each well in duplicate: 75 μL assay buffer+10 μL ENPP1 inhibitor or DMSO Dilutions+10 μL Substrate+5 μL Enzyme (5 ng). Both the enzyme and substrate were added to opposite sides of the well to ensure that there was no interaction until all wells had both components. The plate was then centrifuged gently for 10 seconds, followed by an incubation at 37° C. for 45 minutes. The reaction was quantified by measuring absorbance at 405 nm using the Envision Plate Reader.

KPC mouse model of PDAC = test: Tumor growth in KPC mouse model of PDAC; type: in vivo; conditions: once daily via IP at 20 mg/kg, FIG. 15B
Excerpt: FIG. 15A a pharmacokinetic (PK) plasma concentration chart for compound 107-02. FIG. 15B is a tumor growth inhibition curve for compound 107-02 following in vivo administration. […] FIGS. 15C and 15D are flowcytometric charts of excised tumors following administration of compound 107-02. At the end of the study, tumors were excised and analyzed for T-cells and tumor-associated macrophages using flow cytometry. *p<0.05.

PgP = PgP (Homo sapiens (Human), UniProt P08183); test: PgP Inhibition; type: in vitro ADME
Mouse PK Profile = type: in vivo
[4] = Physicochemical profile of 107-02 (PSA, Log P, Log S, solubility)
ENPP1 protein [5] = biological target: T2, ENPP1 protein (Homo sapiens (Human), UniProt P22413); test: ENPP1 Thermal Shift Assay (Example 1); type: binding
Procedure: Assay Buffer (1 mM CaCl2, 0.2 mM ZnCl2, 50 mM Tris, pH 9.0) 5000×SYPRO Orange (ThermoFisher cat #S6651) 384-well PCR Plates
Each drug was prepared as a 10× solution in the assay buffer and SYPRO Orange was diluted to 10× concentration in water. Wells were set up in duplicate in a 384-well PCR plate as follows: 14 μL assay buffer, 2 μL ENPP1 Inhibitor or DMSO, 2 μL (0.5 μg) ENPP1 protein. Each well was mixed and incubated on ice for 5 minutes. Post incubation, 2 μL of SYPRO Orange was mixed into each well and followed by a gentle centrifugation. The protein melt reaction was run using ViiA7 software with temperatures beginning at 25° C. and increasing by 0.05° C./s to the maximum temperature of 99° C.
In a 384-well plate, 1.0 μg of ENPP1 protein incubated with 100 μM of the corresponding drug for 5 minutes. Each well exposed to increasing temperatures to determine an unfolding temperature of the protein.
Target sequence in this assay (P22413 whole entry, looked up, change not shown): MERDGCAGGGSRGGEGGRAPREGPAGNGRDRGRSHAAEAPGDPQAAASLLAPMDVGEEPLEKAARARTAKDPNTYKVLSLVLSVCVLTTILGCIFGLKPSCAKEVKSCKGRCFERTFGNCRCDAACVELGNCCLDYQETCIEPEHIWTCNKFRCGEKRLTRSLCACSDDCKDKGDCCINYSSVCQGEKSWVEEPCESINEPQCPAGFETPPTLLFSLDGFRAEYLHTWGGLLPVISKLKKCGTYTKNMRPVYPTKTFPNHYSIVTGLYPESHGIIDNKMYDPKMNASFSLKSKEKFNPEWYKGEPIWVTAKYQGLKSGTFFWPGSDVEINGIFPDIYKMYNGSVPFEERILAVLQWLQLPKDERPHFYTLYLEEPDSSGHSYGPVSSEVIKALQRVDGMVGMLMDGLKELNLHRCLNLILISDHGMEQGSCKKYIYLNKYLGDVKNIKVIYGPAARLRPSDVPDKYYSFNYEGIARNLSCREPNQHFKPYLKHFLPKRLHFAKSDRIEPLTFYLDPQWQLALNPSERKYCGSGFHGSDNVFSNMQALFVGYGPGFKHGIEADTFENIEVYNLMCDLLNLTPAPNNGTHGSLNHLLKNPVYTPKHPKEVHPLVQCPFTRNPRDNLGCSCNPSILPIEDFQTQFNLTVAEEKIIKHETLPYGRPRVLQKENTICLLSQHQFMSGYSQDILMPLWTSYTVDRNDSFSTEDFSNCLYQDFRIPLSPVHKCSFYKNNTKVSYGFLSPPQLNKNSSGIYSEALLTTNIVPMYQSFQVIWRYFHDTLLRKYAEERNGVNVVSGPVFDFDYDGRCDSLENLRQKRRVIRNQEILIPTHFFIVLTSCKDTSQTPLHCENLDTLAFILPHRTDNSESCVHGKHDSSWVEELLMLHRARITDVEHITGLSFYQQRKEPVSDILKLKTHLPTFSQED

ENPP1 protein [6] = biological target: T2, ENPP1 protein; test: ENPP1 enzymatic assay with TMP substrate (FIG. 8); type: biochemical; conditions: 5.0 ng ENPP1, 150 μM TMP substrate
Procedure: FIG. 8 depicts results of a similar experiment. 5.0 ng of ENPP1 protein exposed to increasing doses of inhibitor (compound 78 or compound 107-02) for 10 minutes in solution, followed by the addition of 150 μM of TMP substrate. The assay was then incubated for 20 minutes and then read at 405 nm on the envision plate reader.
Target sequence in this assay (P22413 whole entry, looked up): as the sequence (P22413 whole entry, looked up, change not shown) above

Saos-2 Cells = test: ENPP1 Mineralization Assay; type: cell-based; conditions: FIG. 9, mineralization components for 3 days
Procedure: Saos-2 Cells (ATCC CAT #HTB-85). Culture Medium. 24-well Tissue Culture Plate. Ascorbic Acid, 5 mg/mL (100×). β-Glycerophosphate, 1M (100×). Phosphate Buffered Saline. Alizarin Red, 40 mM pH 4.2. 70% Ethanol. Dye Extraction Reagent, 10% Methanol+10% Acetic Acid
Saos-2 cells were plated at a density of 1.5×10^6 cells/well and allowed to grow to 100% confluency over the following 1-2 days. Once completely confluent, the media was replaced with fresh media supplemented with 1× ascorbic acid, 1× β-glycerophosphate, and varying concentrations of ENPP1 inhibitor (if applicable). The addition of the mineralization components was considered Day 1. On Day 3, the media was gently aspirated with no wash followed by the addition of fresh media, mineralization components, and ENPP1 inhibitor (if applicable). On day 5, the media was gently aspirated and the cells were washed twice with PBS. The cells were then fixed with ice cold 70% ethanol for 1 hour at 4° C. Cells were washed once with PBS and stained with Alizarin Red for 30 minutes at room temperature with gentle rotation. Stained cells were washed three times with water for 10 minutes at room temperature with gentle rotation. After imaging cells, dye extraction reagent was added to each well and incubated for 30 minutes at room temperature. Alizarin red was quantified by measuring absorbance at a wavelength of 405 nm using the Envision.
FIG. 9 depicts a picture of results of a similar SAOS-2 mineralization assay. SAOS-2 cell were cultured in the presence and absence of ENPP1 inhibitor (compound 78, 107-02 or 108) and exposed to mineralization components for 3 days.

ENPP = test: Selectivity
Caco-2 = Caco-2 permeability; type: in vitro ADME

T1 sequence (P22413 whole entry, looked up): as the sequence (P22413 whole entry, looked up, change not shown) above
PgP, sequence (P08183 whole entry): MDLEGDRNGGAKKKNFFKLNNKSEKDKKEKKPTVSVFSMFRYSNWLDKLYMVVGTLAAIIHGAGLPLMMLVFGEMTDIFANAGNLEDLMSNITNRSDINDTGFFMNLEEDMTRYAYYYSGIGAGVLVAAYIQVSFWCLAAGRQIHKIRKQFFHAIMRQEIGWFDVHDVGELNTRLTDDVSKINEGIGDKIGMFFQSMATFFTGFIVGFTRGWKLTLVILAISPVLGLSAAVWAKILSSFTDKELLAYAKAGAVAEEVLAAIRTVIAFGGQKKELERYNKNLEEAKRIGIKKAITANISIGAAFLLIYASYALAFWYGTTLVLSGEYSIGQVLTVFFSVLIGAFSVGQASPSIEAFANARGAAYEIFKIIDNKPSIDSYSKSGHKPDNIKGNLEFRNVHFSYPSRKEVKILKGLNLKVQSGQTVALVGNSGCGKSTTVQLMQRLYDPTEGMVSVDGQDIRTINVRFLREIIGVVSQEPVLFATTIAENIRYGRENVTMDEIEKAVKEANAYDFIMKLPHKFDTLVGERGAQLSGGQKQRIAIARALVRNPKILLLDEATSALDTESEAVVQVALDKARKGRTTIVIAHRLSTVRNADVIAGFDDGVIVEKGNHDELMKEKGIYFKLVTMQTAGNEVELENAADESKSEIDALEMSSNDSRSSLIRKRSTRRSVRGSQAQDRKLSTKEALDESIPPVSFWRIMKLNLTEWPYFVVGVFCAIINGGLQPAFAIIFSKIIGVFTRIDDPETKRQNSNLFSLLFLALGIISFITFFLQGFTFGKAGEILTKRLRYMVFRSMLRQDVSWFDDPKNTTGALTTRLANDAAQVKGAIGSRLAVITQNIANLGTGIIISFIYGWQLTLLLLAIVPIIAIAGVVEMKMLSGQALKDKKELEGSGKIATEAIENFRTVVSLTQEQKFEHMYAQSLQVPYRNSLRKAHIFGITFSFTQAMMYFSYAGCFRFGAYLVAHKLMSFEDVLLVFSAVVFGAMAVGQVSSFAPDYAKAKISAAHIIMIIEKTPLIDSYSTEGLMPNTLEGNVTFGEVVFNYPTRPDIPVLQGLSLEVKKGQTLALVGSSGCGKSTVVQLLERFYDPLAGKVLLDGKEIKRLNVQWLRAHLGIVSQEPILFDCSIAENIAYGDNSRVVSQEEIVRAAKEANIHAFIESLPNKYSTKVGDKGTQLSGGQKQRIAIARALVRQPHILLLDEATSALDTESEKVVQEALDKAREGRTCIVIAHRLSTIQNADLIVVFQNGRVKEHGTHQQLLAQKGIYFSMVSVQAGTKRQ

Question: Which IC50 [1] does the source give for `COc1ccc(NC(=O)CSc2nc3c(C)c(C#N)ncc3[nH]2)cc1OP(=O)(O)O` [Compound 107-02, 5-(2-((6-Cyano-7-methyl-3H-imidazo[4,5-c]pyridin-2-yl)thio)acetamido)-2-methoxyphenyl dihydrogen phosphate] here?
Answer: 0.211 µM

Question: And the IRF-3 response [2]?
Answer: significant increase

Question: And the IC50 [3]?
Answer: 0.742 µM

Question: And the “tumor growth of KPC mouse model of PDAC” value (KPC mouse model of PDAC)?
Answer: inhibits tumor growth

Question: And the “PgP Inhibition” value (PgP)?
Answer: Negative

Question: And the “Mouse PK Profile CO” value (Mouse PK Profile)?
Answer: 2840.69 ng/mL

Question: What about the AUC(0-t) (Mouse PK Profile; plasma) of the same molecule?
Answer: 1640 ng·h/mL

Question: And the half-life (Mouse PK Profile; plasma)?
Answer: 1.83 h

Question: What about the AUC(0-inf) (Mouse PK Profile; plasma, read-out: AUCINF obs) of the same molecule?
Answer: 1650 ng·h/mL

Question: What about the clearance (Mouse PK Profile; plasma, read-out: CL obs) of the same molecule?
Answer: 22.1 mL/min/kg

Question: What about the solubility [4] of the same molecule?
Answer: 640 µg/mL

Question: What about the logP ([4]; pH 7.4) of the same molecule?
Answer: 0.009

Question: And the “Tm (° C.)” value (ENPP1 protein [5]; Table 2, FIG. 7, 100 μM drug, 1.0 μg ENPP1, NT 60.05)?
Answer: 63.89 °C

Question: And the ΔTm at 100 µM (ENPP1 protein [5]; read-out: ΔTm (° C.))?
Answer: 3.84 °C

Question: What about the enzymatic activity (ENPP1 protein [6]) of the same molecule?
Answer: significant decrease

Question: And the total mineralization (Saos-2 Cells)?
Answer: significant decrease

Question: And the Selectivity (ENPP)?
Answer: Highly selective ENPPi

Question: And the Caco2 (Caco-2; first entry (Caco2))?
Answer: −5.28

Question: And the Caco-2 (Caco-2; second entry (Caco-2))?
Answer: −4.867
